What was measured:
[1] = Mouse single-dose pharmacokinetics; assay type: in vivo; details: female, BALB/c, plasma, single oral dose 10 mg/kg
[2] = test system: panel of VL and CL strains (intracellular amastigotes); test: Panel of VL and CL strains; assay type: cell-based, Leishmania spp.; details: Leishmania, L. major JISH118 and L. braziliensis H3227 excepted, read-out: IC50 values across panel of VL and CL strains
Experimental: The only two clear exceptions were L. major (MHOM/SA/85/JISH118) and L. braziliensis (MHOM/BR/94/H3227), where a potency drop was evident (see S1 Data for the complete dataset).
(§1) For the antileishmania in vitro assays, 3×10^4 PMM/well were seeded in 96-well plates. After 24h, 5×10^5 amastigotes/well were added and incubated for 2h at 37°C. Next, the compounds in 4-fold serial dilutions were added and the plates were further incubated for 5 days (37°C, 5% CO2). Parasite burdens were assessed using an inverted microscope after Giemsa staining. The results were expressed as percent reduction in parasite burdens compared to negative control wells (100% growth) and IC50 values were determined. Values represent the geometric mean of at least two independent experiments. Miltefosine was used as the positive control in all plates.

[3] = test system: L. braziliensis MHOM/BR/94/H3227; test: VL/CL panel, intracellular amastigotes; assay type: cell-based; details: Leishmania braziliensis; average; read-out: IC-50 L. braziliensis MHOM/BR/94/H3227
Experimental: as §1

SMILES | AUC(0-t) [1] [ng·h/mL] | Cmax [1] [ng/mL] | bioavailability [1] [%] | half-life [1] [min] | IC50 [2] [µM] | IC50 [3] [µM]
Cn1nccc1C(=O)Nc1nc2ccc(C#N)cc2n1CC(C)(C)C [Compound 29, O=C(Nc1n(CC(C)(C)C)c(c2n1)cc(C#N)cc2)c3n(C)ncc3] | 8160 | 1000 | 72 | 474 | 0.11 to 5.9 | 24.8
Cn1nc(C(F)(F)F)cc1C(=O)Nc1nc2ccc(C#N)cc2n1CC(F)(F)F [Compound 39, O=C(c1cc(C(F)(F)F)nn1C)Nc2nc(ccc(C#N)c3)c3n2CC(F)(F)F] |  |  |  |  | 0.11 to 5.9 | 

From publication PMC7932521, “2-aminobenzimidazoles for leishmaniasis: From initial hit discovery to in vivo profiling” (PLoS Neglected Tropical Diseases, 2021)
